Source: patent publication US7872018B2, “Compounds and methods for kinase modulation, and indications therefor” (Plexxikon, Inc., priority 2006, dated 2011)

Legend:
Kit = target: T1, Kit (Homo sapiens, UniProt P10721); experiment: c-kit biochemical assay (AlphaScreen or 33P-ATP); settings: under the test conditions employed; read-out: IC50 toward kinase Kit
T1 construct: P1332.N6 BI PTP KIT M552-K948-X COD; made in house; host or cells: E. coli BL21(DE3)RIL, co-expressed with PTP1B
Protocol: C-kit kinase was at 1 ng per sample.
The c-kit enzyme used in the above assay was either obtained from Cell Signaling Technology (Cat. #7754) or was prepared as follows: A plasmid encoding kit (DNA and encoded protein sequences shown below) was engineered using common polymerase chain reaction (PCR) methods. Complementary DNA cloned from various human tissues were purchased from Invitrogen, and these were used as substrates in the PCR reactions. Specific custom synthetic oligonucleotide primers were designed to initiate the PCR product, and also to provide the appropriate restriction enzyme cleavage sites for ligation with the plasmids. The entire sequence encoding the enzyme was made through a gene synthesis procedure, using custom synthetic oligonucleotides covering the entire coding sequence (Invitrogen, see below).

Fms = target: T2, Fms (Homo sapiens, UniProt P07333); experiment: Fms biochemical assay (AlphaScreen or 33P-ATP); settings: under the test conditions employed; read-out: IC50 toward kinase Fms
T2 construct: purchased Upstate Biotech 14-551
Text: Each sample was at 5% DMSO.

HGK = HGK (Homo sapiens, UniProt O95819); experiment: HGK (MAP4K4) biochemical assay (AlphaScreen); settings: under the test conditions employed; read-out: IC50 toward kinase HGK
Protocol: Substrate was 10 nM biotin-ERM (T567/T564/T558, Cell Signaling, Inc., cat#1344). MAP4K4 kinase was at 0.5 ng per sample. After incubation of the kinase reaction for 40 min at room temperature, 5 μl of donor beads and protein A acceptor beads (Perkin Elmer Life Science, cat#67606017) at final concentration 1 μg/ml in stop buffer (20 mM Tris, pH 7.4, 200 mM Nacl, 100 mM EDTA, 0.03% BSA) was added, along with Phospho-ERM Antibody (T567/T564/T558, Cell Signaling, Inc., cat#3141) at 1:1000 dilution. […] Phosphorylated substrate results in binding of the antibody which binds to protein A acceptor bead and association of the donor and acceptor beads is such that the signal correlates with kinase activity.

TrkA = target: T3, TrkA (Homo sapiens, UniProt P04629); experiment: TrkA biochemical assay (AlphaScreen); settings: under the test conditions employed; read-out: IC50 toward kinase TrkA
T3 construct: purchased Upstate Biotech 14-571
Protocol: Compounds tested were dissolved in DMSO (1 μL) and added to a white 384-well plate (Costar #3705). […] Each sample was at 5% DMSO. The plate was then incubated for 40 minutes at room temperature.

T1 sequence (P10721 552-948): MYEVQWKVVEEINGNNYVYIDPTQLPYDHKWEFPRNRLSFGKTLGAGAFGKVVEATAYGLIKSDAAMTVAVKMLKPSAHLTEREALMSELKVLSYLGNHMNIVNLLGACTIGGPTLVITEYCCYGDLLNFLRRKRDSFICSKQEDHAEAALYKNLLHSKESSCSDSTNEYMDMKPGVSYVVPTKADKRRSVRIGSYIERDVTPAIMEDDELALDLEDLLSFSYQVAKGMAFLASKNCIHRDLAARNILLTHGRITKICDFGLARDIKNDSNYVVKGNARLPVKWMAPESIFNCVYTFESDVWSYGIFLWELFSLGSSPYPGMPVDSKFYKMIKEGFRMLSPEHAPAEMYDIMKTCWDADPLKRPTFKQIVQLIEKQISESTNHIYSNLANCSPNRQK
Sequence of HGK (O95819 whole entry): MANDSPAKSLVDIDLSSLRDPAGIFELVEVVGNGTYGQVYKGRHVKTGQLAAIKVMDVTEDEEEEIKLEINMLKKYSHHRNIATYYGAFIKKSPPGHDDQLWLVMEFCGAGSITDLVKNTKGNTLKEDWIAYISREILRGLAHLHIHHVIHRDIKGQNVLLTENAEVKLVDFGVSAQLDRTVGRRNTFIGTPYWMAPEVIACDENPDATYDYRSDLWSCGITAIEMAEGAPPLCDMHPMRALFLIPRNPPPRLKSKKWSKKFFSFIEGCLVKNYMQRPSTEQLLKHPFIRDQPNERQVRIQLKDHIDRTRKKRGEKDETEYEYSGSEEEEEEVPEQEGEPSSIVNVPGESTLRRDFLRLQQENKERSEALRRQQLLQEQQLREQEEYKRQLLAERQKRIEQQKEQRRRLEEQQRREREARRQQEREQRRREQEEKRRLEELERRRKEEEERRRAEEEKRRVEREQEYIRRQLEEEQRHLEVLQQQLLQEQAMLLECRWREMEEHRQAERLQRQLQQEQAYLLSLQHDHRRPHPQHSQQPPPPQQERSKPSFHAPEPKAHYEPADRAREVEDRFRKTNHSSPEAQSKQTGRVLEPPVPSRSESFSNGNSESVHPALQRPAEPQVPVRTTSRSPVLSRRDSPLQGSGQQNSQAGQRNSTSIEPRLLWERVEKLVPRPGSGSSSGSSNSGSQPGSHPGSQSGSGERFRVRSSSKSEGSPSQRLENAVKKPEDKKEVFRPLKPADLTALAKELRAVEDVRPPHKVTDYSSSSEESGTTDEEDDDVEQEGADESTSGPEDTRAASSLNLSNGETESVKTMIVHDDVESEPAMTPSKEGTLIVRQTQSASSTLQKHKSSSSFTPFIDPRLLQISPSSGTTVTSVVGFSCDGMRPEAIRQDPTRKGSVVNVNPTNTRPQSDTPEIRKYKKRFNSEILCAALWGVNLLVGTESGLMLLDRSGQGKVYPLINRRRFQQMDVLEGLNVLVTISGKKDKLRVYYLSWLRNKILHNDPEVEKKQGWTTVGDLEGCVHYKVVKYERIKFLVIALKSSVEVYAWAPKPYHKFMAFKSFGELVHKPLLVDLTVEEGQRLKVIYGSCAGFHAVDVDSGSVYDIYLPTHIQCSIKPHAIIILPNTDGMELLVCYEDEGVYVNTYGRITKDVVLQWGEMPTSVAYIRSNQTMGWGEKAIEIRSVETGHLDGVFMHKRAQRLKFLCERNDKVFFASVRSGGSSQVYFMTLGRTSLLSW
T3 sequence (P04629 33-796): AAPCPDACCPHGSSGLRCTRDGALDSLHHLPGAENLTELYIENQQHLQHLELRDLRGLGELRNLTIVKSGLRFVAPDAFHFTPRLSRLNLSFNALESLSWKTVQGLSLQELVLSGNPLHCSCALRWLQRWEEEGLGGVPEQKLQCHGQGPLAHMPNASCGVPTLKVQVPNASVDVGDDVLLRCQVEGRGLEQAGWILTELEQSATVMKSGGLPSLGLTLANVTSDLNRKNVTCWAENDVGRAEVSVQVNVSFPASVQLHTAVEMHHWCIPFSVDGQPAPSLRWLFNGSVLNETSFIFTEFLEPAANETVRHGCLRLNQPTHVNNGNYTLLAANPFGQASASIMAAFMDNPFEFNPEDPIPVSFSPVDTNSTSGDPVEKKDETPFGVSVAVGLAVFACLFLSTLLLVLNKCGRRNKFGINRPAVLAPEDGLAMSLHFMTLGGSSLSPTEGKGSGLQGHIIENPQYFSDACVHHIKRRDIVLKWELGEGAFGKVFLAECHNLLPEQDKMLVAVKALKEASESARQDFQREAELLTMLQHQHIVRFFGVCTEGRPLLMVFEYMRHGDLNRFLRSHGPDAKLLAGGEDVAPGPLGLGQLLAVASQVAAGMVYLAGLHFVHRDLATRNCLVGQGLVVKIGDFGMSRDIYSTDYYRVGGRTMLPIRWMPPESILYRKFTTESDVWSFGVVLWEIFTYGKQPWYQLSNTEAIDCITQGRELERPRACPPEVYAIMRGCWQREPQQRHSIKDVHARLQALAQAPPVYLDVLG
T2 sequence (P07333 20-972): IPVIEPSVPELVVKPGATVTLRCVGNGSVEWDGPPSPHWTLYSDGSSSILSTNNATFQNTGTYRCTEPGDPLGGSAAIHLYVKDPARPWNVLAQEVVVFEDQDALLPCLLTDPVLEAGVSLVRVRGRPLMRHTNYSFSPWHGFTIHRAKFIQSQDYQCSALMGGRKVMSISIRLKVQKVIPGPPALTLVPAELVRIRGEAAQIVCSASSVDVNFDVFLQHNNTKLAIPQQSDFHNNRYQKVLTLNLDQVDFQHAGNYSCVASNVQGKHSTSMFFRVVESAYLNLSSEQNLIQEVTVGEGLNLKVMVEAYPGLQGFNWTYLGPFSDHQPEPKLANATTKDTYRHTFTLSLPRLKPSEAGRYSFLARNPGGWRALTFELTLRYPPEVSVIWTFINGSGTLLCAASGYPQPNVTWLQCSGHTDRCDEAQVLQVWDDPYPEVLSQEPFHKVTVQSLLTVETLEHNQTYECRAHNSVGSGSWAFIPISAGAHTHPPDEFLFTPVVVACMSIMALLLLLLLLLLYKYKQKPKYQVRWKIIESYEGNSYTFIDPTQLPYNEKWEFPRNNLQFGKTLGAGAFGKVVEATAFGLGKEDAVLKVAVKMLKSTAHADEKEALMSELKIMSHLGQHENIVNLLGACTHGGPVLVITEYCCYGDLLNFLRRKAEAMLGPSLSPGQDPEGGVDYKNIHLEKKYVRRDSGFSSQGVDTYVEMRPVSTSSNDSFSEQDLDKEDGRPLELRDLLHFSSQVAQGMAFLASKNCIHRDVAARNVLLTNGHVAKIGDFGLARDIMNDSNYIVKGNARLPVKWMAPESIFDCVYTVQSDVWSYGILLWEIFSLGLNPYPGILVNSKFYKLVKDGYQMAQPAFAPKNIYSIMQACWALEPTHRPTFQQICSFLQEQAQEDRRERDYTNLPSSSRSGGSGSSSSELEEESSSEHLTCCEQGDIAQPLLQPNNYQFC

| Compound | IC50 (Fms) [µM] | further results |
| --- | --- | --- |
| CCOc1c(OCc2ccc(Cl)cc2F)cccc1C(=O)c1c[nH]c2ncccc12 [P-2123, [3-(4-Chloro-2-fluoro-benzyloxy)-2-ethoxy-phenyl]-(1H-pyrrolo[2,3-b]pyridin-3-yl)-methanone] | ≤ 10 | – |
| Fc1cc(OCc2nc3ccccc3[nH]2)cc(F)c1Cc1c[nH]c2ncccc12 [P-2102, 2-[3,5-Difluoro-4-(1H-pyrrolo[2,3-b]pyridin-3-ylmethyl)-phenoxymethyl]-1H-benzoimidazole] | ≤ 10 | IC50 (HGK): ≤ 10 µM |
| COc1cc(Cc2c[nH]c3ncccc23)c(F)cc1OCc1ccc(Cl)cc1 [P-1844, 3-[4-(4-Chloro-benzyloxy)-2-fluoro-5-methoxy-benzyl]-1H-pyrrolo[2,3-b]pyridine] | – | IC50 (TrkA): ≤ 10 µM |
| COc1ccc2[nH]c(COc3cc(F)c(Cc4c[nH]c5ncccc45)cc3OC)nc2c1 [P-2113, 2-[5-Fluoro-2-methoxy-4-(1H-pyrrolo[2,3-b]pyridin-3-ylmethyl)-phenoxymethyl]-6-methoxy-1H-benzoimidazole] | ≤ 10 | IC50 (HGK): ≤ 10 µM |
| Fc1ccc(OCc2ccccc2)c(F)c1Cc1c[nH]c2ncccc12 [P-1803, 3-(3-Benzyloxy-2,6-difluoro-benzyl)-1H-pyrrolo[2,3-b]pyridine] | ≤ 10 | – |
| COc1cc(Cc2c[nH]c3ncccc23)ccc1OCc1ccc(CN2CCN(C)CC2)cc1 [P-1821, 3-{3-Methoxy-4-[4-(4-methyl-piperazin-1-ylmethyl)-benzyloxy]-benzyl}-1H-pyrrolo[2,3-b]pyridine] | ≤ 10 | – |
| O=C(c1cccc(OCc2ccc(Cl)cc2F)c1OCC(F)F)c1c[nH]c2ncccc12 [P-2119, [3-(4-Chloro-2-fluoro-benzyloxy)-2-(2,2-difluoro-ethoxy)-phenyl]-(1H-pyrrolo[2,3-b]pyridin-3-yl)-methanone] | ≤ 10 | – |
| COc1cnc2[nH]cc(Cc3cc(OC)c(OCc4ccc(Cl)cc4F)cc3F)c2c1 [P-1885, 3-[4-(4-Chloro-2-fluoro-benzyloxy)-2-fluoro-5-methoxy-benzyl]-5-methoxy-1H-pyrrolo[2,3-b]pyridine] | – | IC50 (TrkA): ≤ 10 µM |
| COc1cc(Cc2c[nH]c3ncccc23)c(F)cc1OCc1cccnc1 [P-2038, 3-[2-Fluoro-5-methoxy-4-(pyridin-3-ylmethoxy)-benzyl]-1H-pyrrolo[2,3-b]pyridine] | – | IC50 (TrkA): ≤ 10 µM |
| COc1cc(Cc2c[nH]c3ncccc23)c(F)cc1OCc1nc2ccccc2[nH]1 [P-1978, 2-[5-Fluoro-2-methoxy-4-(1H-pyrrolo[2,3-b]pyridin-3-ylmethyl)-phenoxymethyl]-1H-benzoimidazole] | – | IC50 (TrkA): ≤ 10 µM |
| O=C(c1cccc(OCc2ccc(Cl)cc2F)c1OCC1CC1)c1c[nH]c2ncccc12 [P-2120] | ≤ 10 | IC50 (Kit): ≤ 10 µM |
| O=C(c1cccc(OCc2ccc(Cl)cc2)c1OCCF)c1c[nH]c2ncccc12 [P-2118, [3-(4-Chloro-benzyloxy)-2-(2-fluoro-ethoxy)-phenyl]-(1H-pyrrolo[2,3-b]pyridin-3-yl)-methanone] | ≤ 10 | – |
| CCOc1c(OCc2cccc(C)n2)cccc1C(=O)c1c[nH]c2ncccc12 [P-2122, [2-Ethoxy-3-(6-methyl-pyridin-2-ylmethoxy)-phenyl]-(1H-pyrrolo[2,3-b]pyridin-3-yl)-methanone] | ≤ 10 | – |
| COc1cc(Cc2c[nH]c3ncc(Cl)cc23)c(F)cc1OCc1nc2ccccc2[nH]1 [P-1976, 2-[4-(5-Chloro-1H-pyrrolo[2,3-b]pyridin-3-ylmethyl)-5-fluoro-2-methoxy-phenoxymethyl]-1H-benzoimidazole] | – | IC50 (TrkA): ≤ 10 µM |

Continued, in another order:

| IC50 (Fms) [µM] | Compound | further results |
| --- | --- | --- |
| ≤ 10 | O=C(c1cccc(OCc2ccc(Cl)cc2F)c1OCC(F)(F)F)c1c[nH]c2ncccc12 [P-2139, [3-(4-Chloro-2-fluoro-benzyloxy)-2-(2,2,2-trifluoro-ethoxy)-phenyl]-(1H-pyrrolo[2,3-b]pyridin-3-yl)-methanone] | IC50 (Kit): ≤ 10 µM |
| ≤ 10 | CCOc1c(OC(C)c2ccc(Cl)cc2Cl)cccc1C(=O)c1c[nH]c2ncccc12 (stereo not shown) [P-2138, {3-[1-(2,4-Dichloro-phenyl)-ethoxy]-2-ethoxy-phenyl}-(1H-pyrrolo[2,3-b]pyridin-3-yl)-methanone] | – |
| ≤ 10 | CCOc1c(OCc2ccccc2F)cccc1C(=O)c1c[nH]c2ncccc12 [P-2127, [2-Ethoxy-3-(2-fluoro-benzyloxy)-phenyl]-(1H-pyrrolo[2,3-b]pyridin-3-yl)-methanone] | – |
| ≤ 10 | Fc1ccc(OCC(F)(F)F)c(Cl)c1Cc1c[nH]c2ncccc12 [P-2148, 3-[2-Chloro-6-fluoro-3-(2,2,2-trifluoro-ethoxy)-benzyl]-1H-pyrrolo[2,3-b]pyridine] | IC50 (Kit): ≤ 10 µM |
| ≤ 10 | COc1cc(Cc2c[nH]c3ncc(C)cc23)c(F)cc1OCc1nc2cc(Cl)ccc2[nH]1 [P-2184, 5-Chloro-2-[5-fluoro-2-methoxy-4-(5-methyl-1H-pyrrolo[2,3-b]pyridin-3-ylmethyl)-phenoxymethyl]-1H-benzoimidazole] | IC50 (Kit): ≤ 10 µM; IC50 (HGK): ≤ 10 µM |
| ≤ 10 | CCOc1c(OCc2cc(C)n(C)n2)cccc1C(=O)c1c[nH]c2ncccc12 [P-2134, [3-(1,5-Dimethyl-1H-pyrazol-3-ylmethoxy)-2-ethoxy-phenyl]-(1H-pyrrolo[2,3-b]pyridin-3-yl)-methanone] | – |
| ≤ 10 | CCOc1c(OCc2sc(C)nc2C)cccc1C(=O)c1c[nH]c2ncccc12 [P-2124, [3-(2,4-Dimethyl-thiazol-5-ylmethoxy)-2-ethoxy-phenyl]-(1H-pyrrolo[2,3-b]pyridin-3-yl)-methanone] | – |
| ≤ 10 | CCOc1c(OCc2c(F)cc(F)cc2F)cccc1C(=O)c1c[nH]c2ncccc12 [P-2137, [2-Ethoxy-3-(2,4,6-trifluoro-benzyloxy)-phenyl]-(1H-pyrrolo[2,3-b]pyridin-3-yl)-methanone] | IC50 (Kit): ≤ 10 µM |
| ≤ 10 | CCOc1c(OCc2ccc(N3CCOCC3)nc2)cccc1C(=O)c1c[nH]c2ncccc12 [P-2128, [2-Ethoxy-3-(6-morpholin-4-yl-pyridin-3-ylmethoxy)-phenyl]-(1H-pyrrolo[2,3-b]pyridin-3-yl)-methanone] | – |
| ≤ 10 | O=C(c1cccc(OCc2c(F)cc(F)cc2F)c1OCC1CC1)c1c[nH]c2ncc(Cl)cc12 [P-2141, (5-Chloro-1H-pyrrolo[2,3-b]pyridin-3-yl)-[2-cyclopropylmethoxy-3-(2,4,6-trifluoro-benzyloxy)-phenyl]-methanone] | – |
| ≤ 10 | CCOc1c(OCc2ccc(C(F)(F)F)nc2)cccc1C(=O)c1c[nH]c2ncccc12 [P-2129, [2-Ethoxy-3-(6-trifluoromethyl-pyridin-3-ylmethoxy)-phenyl]-(1H-pyrrolo[2,3-b]pyridin-3-yl)-methanone] | – |
| ≤ 10 | CCOc1c(OCc2ccc(Cl)cc2Cl)cccc1C(=O)c1c[nH]c2ncccc12 [P-2130, [3-(2,4-Dichloro-benzyloxy)-2-ethoxy-phenyl]-(1-pyrrolo[2,3-b]pyridin-3-yl)-methanone] | IC50 (Kit): ≤ 10 µM |
| ≤ 10 | CCOc1c(OCc2ccc(F)cc2F)cccc1C(=O)c1c[nH]c2ncccc12 [P-2132, [3-(2,4-Difluoro-benzyloxy)-2-ethoxy-phenyl]-(1H-pyrrolo[2,3-b]pyridin-3-yl)-methanone] | – |
| ≤ 10 | CCOc1c(OC(C)c2ccccc2F)cccc1C(=O)c1c[nH]c2ncccc12 (stereo not shown) [P-2133, {2-Ethoxy-3-[1-(2-fluoro-phenyl)-ethoxy]-phenyl}-(1H-pyrrolo[2,3-b]pyridin-3-yl)-methanone] | – |
| ≤ 10 | CCOc1c(OC(C)c2ccncc2)cccc1C(=O)c1c[nH]c2ncccc12 (stereo not shown) [P-2135, [2-Ethoxy-3-(1-pyridin-4-yl-ethoxy)-phenyl]-(1H-pyrrolo[2,3-b]pyridin-3-yl)-methanone] | – |
| ≤ 10 | COc1cc(Cc2c[nH]c3ncc(Cl)cc23)c(F)cc1OCc1nc2cc(F)ccc2[nH]1 [P-2179, 2-[4-(5-Chloro-1H-pyrrolo[2,3-b]pyridin-3-ylmethyl)-5-fluoro-2-methoxy-phenoxymethyl]-5-fluoro-1H-benzoimidazole] | IC50 (TrkA): ≤ 10 µM |
| ≤ 10 | CCOc1c(OCc2ccc(-n3ccnc3)cc2)cccc1C(=O)c1c[nH]c2ncccc12 [P-2131, [2-Ethoxy-3-(4-imidazol-1-yl-benzyloxy)-phenyl]-(1H-pyrrolo[2,3-b]pyridin-3-yl)-methanone] | – |
| ≤ 10 | CCOc1c(OCc2cc(C)nn2C)cccc1C(=O)c1c[nH]c2ncccc12 [P-2125, [3-(2,5-Dimethyl-2H-pyrazol-3-ylmethoxy)-2-ethoxy-phenyl]-(1H-pyrrolo[2,3-b]pyridin-3-yl)-methanone] | – |
| ≤ 10 | CCOc1c(OCCCN2CCOCC2)cccc1C(=O)c1c[nH]c2ncccc12 [P-2126, [2-Ethoxy-3-(3-morpholin-4-yl-propoxy)-phenyl]-(1H-pyrrolo[2,3-b]pyridin-3-yl)-methanone] | – |
